In PMC7765930, “Antiproliferative Phenanthrenes from Juncus tenuis: Isolation and Diversity-Oriented Semisynthetic Modification” (Molecules, 2020):
Like-named read-outs stand apart in the source and are kept apart here.

Tested on: MRC-5 human embryonal lung fibroblast cell line
Test: MTT antiproliferative assay, MRC-5
Format: cell-based
Details: 100–0.19 μM, non-tumoral cells; for IC50: read-out: IC50 (µM) ± SD MRC-5
Description: Breast cancer cell line MCF-7 (ATCC® HTB-22) and the drug-resistant subline of the human breast cancer MCF-7 (ECACC 86012803; KCR) were purchased from LGC Promochem (Teddington, UK). Both cell lines were cultured in Eagle’s Minimal Essential Medium (EMEM, containing 4.5 g/L glucose) supplemented with a non-essential amino acid mixture, a selection of vitamins, and 10% heat-inactivated fetal bovine serum. In every third passage, 0.56 µg/mL doxorubicin was added to the medium, in order to maintain the ABCB1 (P-glycoprotein) expression in KCR cells. A2780 human ovarian cancer cell line (ECACC, European Collection of Authentical Cell Culture, Sigma Cat.no. 93112519) was purchased from Merck KGaA (Darmstadt, Germany). […] The human ovarian cancer cell lines were cultured in RPMI 1640 medium supplemented with 10% heat-inactivated fetal bovine serum. […] HeLa (ATCC® CCL-2™) human cervix carcinoma cell line was purchased from LGC Promochem (Teddington, UK). The cells were cultured in Eagle’s Minimal Essential Medium (EMEM, containing 4.5 g/L glucose) supplemented with a non-essential amino acid mixture, a selection of vitamins, and 10% heat-inactivated fetal bovine serum. MRC-5 human embryonal lung fibroblast cell line (ATCC® CCL-171) was purchased from LGC Promochem, Teddington, UK. The cell line was cultured in Eagle’s Minimal Essential Medium (EMEM, containing 4.5 g/L glucose) supplemented with a non-essential amino acid mixture, a selection of vitamins, and 10% heat-inactivated fetal bovine serum. HTB-26 breast adenocarcinoma cell line was purchased from LGC Promochem, Teddington, UK. The cell line was cultured in RPMI 1640 medium supplemented with 10% heat-inactivated fetal bovine serum. T-47D (ATCC® HTB-133™) ductal carcinoma cell line was purchased from LGC Promochem, Teddington, UK. The cells were cultured in RPMI 1640 medium supplemented with 10% heat-inactivated fetal bovine serum, 2 mM L-glutamine, 1 mM Na-pyruvate, and 100 mM Hepes. All of the cells were incubated at 37 °C, in a 5% CO2 and 95% air atmosphere.
The antiproliferative effect of the compounds was determined on human breast (MCF-7, KCR, T47D, and HTB-26), cervical (HeLa), and ovarian (A2780 and A2780cis) cancer cells, and on MRC-5 (human embryonic lung fibroblast) cell lines. The adherent cells were cultured in 96-well flat-bottomed microtiter plates, using EMEM supplemented with 10% heat-inactivated fetal bovine serum or RPMI 1640 supplemented with 10% heat-inactivated fetal bovine serum, respectively. The density of the cells was adjusted to 6 × 10^3 cells in 100 μL per well, the cells were seeded for 24 h at 37 °C, with 5% CO2, and then the medium was removed from the plates, and fresh medium (100 μL per well) was added to the cells. The effects of increasing concentrations of compounds on cell proliferation were tested in 96-well flat-bottomed microtiter plates. The compounds were diluted in the appropriate medium; the dilutions of compounds were performed in separate plates and then added to the cells. The starting concentration of the compounds was 100 μM, and two-fold serial dilution was performed (concentration range: 100–0.19 μM). The culture plates were incubated at 37 °C for 72 h; at the end of the incubation period, 20 μL of MTT (thiazolyl blue tetrazolium bromide, Sigma) solution (from a stock solution of 5 mg/mL) was added to each well. After incubation at 37 °C for 4 h, 100 μL of sodium dodecyl sulfate (SDS) (Sigma) solution (10% in 0.01 M HCI) was added to each well, and the plates were further incubated, at 37 °C, overnight. Cell growth was determined by measuring the optical density (OD) at 540/630 nm, with a Multiscan EX ELISA reader (Thermo Labsystems, Cheshire, WA, USA). Mean IC50 values were obtained by best-fitting the dose-dependent inhibition curves in GraphPadPrism5 program (GraphPad Software version 5.00 for Windows, San Diego, CA, USA) from four parallel experiments for each cell line.

Row | Compound | IC50 (72 h) [µM] | IC50 (µM) ± SD MRC-5 (72 h) | IC50 (Homo sapiens, MRC5, 72 h) [µM]
1 | C=CC1=CC(=O)C=C2CCC3=C(C=CC(=O)C3(C)OCC)C12OCC (centres unmarked) [Compound 4b] | 23.4 ± 1.3 | – | –
2 | C=CC1=C(C)C(=O)C=C2CCC3=C(C=CC(=O)C3(C)OCC)C21OCC (centres unmarked) [Compound 2b] | 57.7 ± 0.3 | – | –
3 | C=CC1=C(C)C(=O)C=C2CCC3=C(C=CC(=O)C3(C)OCC)C21OCC (centres unmarked) [Compound 2a] | – | did not show an antiproliferative effect | > 100
4 | C=Cc1cc(O)cc2c1-c1ccc(O)c(C)c1CC2 [effusol] | – | – | 60.1 ± 5.1
5 | C=CC1=CC(=O)C=C2CCC3=C(C=CC(=O)C3(C)OC)C12OC (centres unmarked) [Compound 3] | – | – | 12.2 ± 0.2
6 | C=CC1=CC(=O)C=C2CCC3=C(C=CC(=O)C3(C)OCC)C12OCC (centres unmarked) [Compound 4a] | – | – | 14.3 ± 0.5
7 | C=CC1=C(C)C(=O)C=C2CCC3=C(C=CC(=O)C3(C)OC)C21OC (centres unmarked) [Compound 1b] | – | did not show an antiproliferative effect | > 100
8 | C=Cc1c(C)c(O)cc2c1-c1ccc(O)c(C)c1CC2 [juncusol] | – | – | 40.9 ± 2
9 | N.N.[Cl][Pt][Cl] [Cisplatin, cisplatin, reference compound] | 0.6 | – | –
